Results as given in patent US9737504B2, “Dihydroorotic and acid dehydrogenase inhibitor” (NAI INC., priority 2012, dated 2017).
Like-named read-outs stand apart in the source and are kept apart here.

Legend:
human DHOD [1] = biological target: T1, human DHOD (Homo sapiens, UniProt Q02127); experiment: Measurement of DHOD inhibitory activity (DCIP reduction, end point assay); type: biochemical
Description: The compounds of the present invention were used and measured for their DHOD inhibitory activity at concentrations of 200 nM and 1000 nM.
Reduction of DCIP was measured at 600 nm over 20 minutes.

BSY-1 = experiment: JFCR39 cancer cell growth inhibition test, BSY-1; type: cell-based; conditions: Homo sapiens; BSY-1, Br (Breast)
HBC-5 = experiment: JFCR39 cancer cell growth inhibition test, HBC-5; type: cell-based; conditions: Homo sapiens, HBC5; HBC-5, Br (Breast)
MCF-7 = experiment: JFCR39 cancer cell growth inhibition test, MCF-7; type: cell-based; conditions: Homo sapiens, MCF7; MCF-7, Br (Breast)
MDA-MB-231 = experiment: JFCR39 cancer cell growth inhibition test, MDA-MB-231; type: cell-based; conditions: Homo sapiens; MDA-MB-231, Br (Breast)
U251 = experiment: JFCR39 cancer cell growth inhibition test, U251; type: cell-based; conditions: Homo sapiens, U-251; U251, CNS (Central Nervous Systems)
SF-268 = experiment: JFCR39 cancer cell growth inhibition test, SF-268; type: cell-based; conditions: Homo sapiens; SF-268, CNS (Central Nervous Systems)
SF-539 = experiment: JFCR39 cancer cell growth inhibition test, SF-539; type: cell-based; conditions: Homo sapiens; SF-539, CNS (Central Nervous Systems)
HCC2998 = experiment: JFCR39 cancer cell growth inhibition test, HCC2998; type: cell-based; conditions: Homo sapiens, HCC 2998; HCC2998, Co (Colon)
KM-12 = experiment: JFCR39 cancer cell growth inhibition test, KM-12; type: cell-based; conditions: Homo sapiens, KM12; KM-12, Co (Colon)
HT-29 = experiment: JFCR39 cancer cell growth inhibition test, HT-29; type: cell-based; conditions: Homo sapiens; HT-29, Co (Colon)
HCT-15 = experiment: JFCR39 cancer cell growth inhibition test, HCT-15; type: cell-based; conditions: Homo sapiens; HCT-15, Co (Colon)
HCT-116 = experiment: JFCR39 cancer cell growth inhibition test, HCT-116; type: cell-based; conditions: Homo sapiens; HCT-116, Co (Colon)
NCI-H23 = experiment: JFCR39 cancer cell growth inhibition test, NCI-H23; type: cell-based; conditions: Homo sapiens; NCI-H23, Lu (Lung)
NCI-H522 = experiment: JFCR39 cancer cell growth inhibition test, NCI-H522; type: cell-based; conditions: Homo sapiens; NCI-H522, Lu (Lung)
A549 = experiment: JFCR39 cancer cell growth inhibition test, A549; type: cell-based; conditions: Homo sapiens; A549, Lu (Lung)
DMS273 = experiment: JFCR39 cancer cell growth inhibition test, DMS273; type: cell-based; conditions: Homo sapiens, DMS-273; DMS273, Lu (Lung)
DMS114 = experiment: JFCR39 cancer cell growth inhibition test, DMS114; type: cell-based; conditions: Homo sapiens, DMS-114; DMS114, Lu (Lung)
L0X-IMVI = experiment: JFCR39 cancer cell growth inhibition test, L0X-IMVI; type: cell-based; conditions: Homo sapiens, Me (Melanoma)
OVCAR-3 = experiment: JFCR39 cancer cell growth inhibition test, OVCAR-3; type: cell-based; conditions: Homo sapiens; OVCAR-3, Ov (Ovarian)
OVCAR-5 = experiment: JFCR39 cancer cell growth inhibition test, OVCAR-5; type: cell-based; conditions: Homo sapiens; OVCAR-5, Ov (Ovarian)
OVCAR-8 = experiment: JFCR39 cancer cell growth inhibition test, OVCAR-8; type: cell-based; conditions: Homo sapiens; OVCAR-8, Ov (Ovarian)
SK-OV-3 = experiment: JFCR39 cancer cell growth inhibition test, SK-OV-3; type: cell-based; conditions: Homo sapiens; SK-OV-3, Ov (Ovarian)
RXF-631L = experiment: JFCR39 cancer cell growth inhibition test, RXF-631L; type: cell-based; conditions: Homo sapiens, Re (Renal)
ACHN = experiment: JFCR39 cancer cell growth inhibition test, ACHN; type: cell-based; conditions: Homo sapiens, Re (Renal)
St-4 = experiment: JFCR39 cancer cell growth inhibition test, St-4; type: cell-based; conditions: Homo sapiens; St-4, St (Stomac)
MKN1 = experiment: JFCR39 cancer cell growth inhibition test, MKN1; type: cell-based; conditions: Homo sapiens, MKN-1; MKN1, St (Stomac)
MKN7 = experiment: JFCR39 cancer cell growth inhibition test, MKN7; type: cell-based; conditions: Homo sapiens, MKN-7; MKN7, St (Stomac)
MKN74 = experiment: JFCR39 cancer cell growth inhibition test, MKN74; type: cell-based; conditions: Homo sapiens, MKN-74; MKN74, St (Stomac)
PC-3 = experiment: JFCR39 cancer cell growth inhibition test, PC-3; type: cell-based; conditions: Homo sapiens; PC-3, xPg (Prostate)
[2] = system: Panc-1 cells (human pancreatic cells); experiment: Inhibitory effect on Panc-1 cells, control vs hypoxic and subnutritional conditions; type: cell-based; conditions: for IC50: Homo sapiens
Description: (§1) For these reasons, cells of colorectal and pancreatic cancers, each being regarded as intractable, were used to test the inhibitory effect of compounds under hypoxic and subnutritional conditions. Moreover, the same test was also performed on normal skin cells.
The cells used were two types of cancer cells, i.e., DLD-1 cells (human colorectal cancer cells) and Panc-1 cells (human pancreatic cells), as well as HDF cells (human dermal fibroblast cells). Culture conditions were set as follows: 21% oxygen with glucose and […] (10% FBS) for the control group, and 1% oxygen without glucose and […] (10% FBS) for the hypoxic and subnutritional group. The results obtained are shown in Tables 3, 4 and 5, as well as FIGS. 1, 2 and 3.

[3] = system: HDF cells (human dermal fibroblast cells); experiment: Inhibitory effect on HDF cells, control vs hypoxic and subnutritional conditions; type: cell-based; conditions: for IC50: Homo sapiens, HDF normal skin cells
Description: as §1
The cells used were two types of cancer cells, i.e., DLD-1 cells (human colorectal cancer cells) and Panc-1 cells (human pancreatic cells), as well as HDF cells (human dermal fibroblast cells).

human DHOD [4] = biological target: T1, human DHOD; experiment: Measurement of DHOD inhibitory activity (DCIP reduction, end point assay); type: biochemical; conditions: read-out: DHOD inhibition rate (%) 100 nM; 100 nM compound

T1 sequence (Q02127 whole entry): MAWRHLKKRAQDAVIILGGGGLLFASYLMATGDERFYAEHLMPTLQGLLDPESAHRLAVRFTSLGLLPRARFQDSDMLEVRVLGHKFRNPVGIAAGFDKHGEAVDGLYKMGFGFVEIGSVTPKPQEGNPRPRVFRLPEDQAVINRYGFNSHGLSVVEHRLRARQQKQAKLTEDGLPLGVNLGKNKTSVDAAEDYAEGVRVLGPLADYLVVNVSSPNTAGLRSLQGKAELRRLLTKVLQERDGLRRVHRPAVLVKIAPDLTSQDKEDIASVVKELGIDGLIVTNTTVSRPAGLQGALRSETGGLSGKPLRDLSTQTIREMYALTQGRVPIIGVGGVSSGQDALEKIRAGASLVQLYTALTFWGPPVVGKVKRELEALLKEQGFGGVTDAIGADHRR

`C/C(=C\Cc1c(O)c(Cl)c(C)c(C=O)c1O)CC/C=C(\C)[C@@H]1CC(=O)C(C)(C)O1` (racemic) [Ascofuranone, dl-5-Chloro-2,4-dihydroxy-6-methyl-3-[(2E,6E)-3-methyl-7-(3,3-dimethyl-4-oxo-2-oxacyclopentyl)-2,6-octadienyl]benzaldehyde] was tested. Which inhibition at 0.2 µM (human DHOD [1]; read-out: DHOD inhibition rate (%) 200 nM, 200 nM compound) did it give?
Its inhibition at 0.2 µM is 73%.

And the IC50 (human DHOD [1]; read-out: IC50 (nM) human DHOD (HsDHOD))?
Its IC50 is 38 nM.

What about the GI50 (BSY-1) of the same molecule?
The GI50 was 16 µM.

And the GI50 (HBC-5)?
Its GI50 is 28 µM.

What about the GI50 (MCF-7) of the same molecule?
The GI50 was 9 µM.

What about the GI50 (MDA-MB-231) of the same molecule?
Its GI50 is 7.4 µM.

And the GI50 (U251)?
The GI50 was 1.5 µM.

And the GI50 (SF-268)?
Its GI50 is 7 µM.

What about the GI50 (SF-539) of the same molecule?
Its GI50 is 1.7 µM.

What about the GI50 (HCC2998) of the same molecule?
The GI50 was 17 µM.

What about the GI50 (KM-12) of the same molecule?
The GI50 was 9.3 µM.

What about the GI50 (HT-29) of the same molecule?
Its GI50 is 6.6 µM.

What about the GI50 (HCT-15) of the same molecule?
The GI50 was 1.3 µM.

And the GI50 (HCT-116)?
The GI50 was 5.1 µM.

What about the GI50 (NCI-H23) of the same molecule?
The GI50 was 15 µM.

And the GI50 (NCI-H522)?
Its GI50 is 8.4 µM.

And the GI50 (A549)?
The GI50 was 7.6 µM.

And the GI50 (DMS273)?
The GI50 was 5.9 µM.

What about the GI50 (DMS114) of the same molecule?
The GI50 was 19 µM.

And the GI50 (L0X-IMVI)?
The GI50 was 2.8 µM.

What about the GI50 (OVCAR-3) of the same molecule?
The GI50 was 8 µM.

What about the GI50 (OVCAR-5) of the same molecule?
Its GI50 is 7.6 µM.

And the GI50 (OVCAR-8)?
The GI50 was 9.5 µM.

And the GI50 (SK-OV-3)?
The GI50 was 13 µM.

And the GI50 (RXF-631L)?
Its GI50 is 12 µM.

What about the GI50 (ACHN) of the same molecule?
The GI50 was 10 µM.

And the GI50 (St-4)?
Its GI50 is 14 µM.

What about the GI50 (MKN1) of the same molecule?
Its GI50 is 14 µM.

What about the GI50 (MKN7) of the same molecule?
The GI50 was 15 µM.

And the GI50 (MKN74)?
The GI50 was 13 µM.

What about the GI50 (PC-3) of the same molecule?
The GI50 was 13 µM.

And the IC50 ([2]; read-out: IC50 [μM] 1% O2 glc(−)gln(−), Panc-1, 1% O2 glc(−)gln(−))?
Its IC50 is 1.4 µM.

What about the IC50 ([2]; Panc-1, 21% O2 glc(+)gln(+), read-out: IC50 [μM] 21% O2 glc(+)gln(+)) of the same molecule?
Its IC50 is greater than 100 µM.

What about the “Selectivity = 21% glc(+)gln(+) IC50/1% glc(−)gln(−) IC50” value ([2]; Panc-1) of the same molecule?
Its value is greater than 71.

What about the “Selectivity = 21% glc(+)gln(+) IC50/1% glc(−)gln(−) IC50” value ([3]; HDF) of the same molecule?
Its value is greater than 63.

And the IC50 ([3]; read-out: IC50 [μM] 1% O2 glc(−)gln(−), 1% O2 glc(−)gln(−))?
The IC50 was 1.6 µM.

What about the IC50 ([3]; 21% O2 glc(+)gln(+), read-out: IC50 [μM] 21% O2 glc(+)gln(+)) of the same molecule?
The IC50 was greater than 100 µM.

And the inhibition at 0.1 µM (human DHOD [4])?
Its inhibition at 0.1 µM is 95%.
